Test system: male Std:ddY mice
Assay: Phenyl-1,4-benzoquinone-induced writhing test
Type: in vivo
Conditions: for inhibition in vivo at 10 mg/kg / ED50: Mus musculus, po; for inhibition in vivo at 10 mg/kg: 1 h, read-out: Inhibitory percentage (%); for inhibition in vivo at 10 mg/kg / Inhibitory percentage (%): orally administered at a dose of 10 mg/kg, 60 minutes before PBQ; for ED50 / ED50 (mg/kg po): oral administration, logit analysis; for ED50 / ED50 (mg/kg po) / Inhibitory percentage (%): writhing inhibition; for ED50: read-out: ED50 (mg/kg po)
Procedure: Phenyl-1,4-benzoquinone-induced Writhing Test Referring to the method disclosed in Proc. Soc. exp. Biol. […] For oral administration, a test compound was suspended in 0.5% tragacanth solution. […] In the control group, a physiological saline solution containing 10% Tween 80 and 10% ethanol was administered in the case of subcutaneous administration, or a 0.5% tragacanth solution was administered in the case of oral administration. The number of writhing movements in the test compound-treated group was compared with that in the control group, and the writhing inhibitory percentage was calculated therefrom and considered as an analgesic effect. Writhing inhibitory percentage (%)=[(A−B)/A]×100 In the above equation, A means the number of writhing movements in the control group, and B means the number of writhing movements in the test compound-treated group. From the writhing inhibitory percentage of the test compound, ED50 (mg/kg) was calculated by logit analysis.

In the case of `COc1cc(CC(=O)Nc2cccc(-c3ccc(F)cc3)c2)ccc1OCCN` [Example 124, 4-(2-aminoethoxy)-N-[3-(4-fluorophenyl)phenyl]-3-methoxyphenylacetamide], the inhibition in vivo at 10 mg/kg is reported as 100%, the ED50 is reported as no more than 1 mg/kg and the “ED50 (mg/kg po)” value (listed as Ex. 124) is reported as 0.71 mg/kg.

`COc1cc(CC(=O)Nc2cccc(-c3ccccc3Cl)c2)ccc1OCCN` [Example 125, 4-(2-aminoethoxy)-N-[3-(2-chlorophenyl)phenyl]-3-methoxyphenylacetamide] was tested, and the inhibition in vivo at 10 mg/kg was 93%, the ED50 was no more than 1 mg/kg and the “ED50 (mg/kg po)” value (listed as Ex. 125) was 0.71 mg/kg.

`COc1cc(CC(=O)Nc2cccc(-c3cccc(Cl)c3)c2)ccc1OCCN` [Example 126, 4-(2-aminoethoxy)-N-[3-(3-chlorophenyl)phenyl]-3-methoxyphenylacetamide] gave an inhibition in vivo at 10 mg/kg of 89.9% and an ED50 of 2.19 mg/kg.

Work on `COc1cc(CC(=O)Nc2cccc(-c3cc(F)cc(F)c3)c2)ccc1OCCN` [Example 129, 4-(2-aminoethoxy)-N-[3-(3,5-difluorophenyl)phenyl]-3-methoxyphenylacetamide] yielded an inhibition in vivo at 10 mg/kg of 76.9% and an ED50 of 1.89 mg/kg.

Work on `COc1cc(CC(=O)Nc2cccc(-c3ccccc3C)c2)ccc1OCCN` [Example 131, 4-(2-aminoethoxy)-3-methoxy-N-[3-(2-methylphenyl)phenyl]-phenylacetamide] yielded an inhibition in vivo at 10 mg/kg of 100% and an ED50 of 1.1 mg/kg.

For `COc1cc(CC(=O)Nc2cccc(-c3c(C)cc(C)cc3C)c2)ccc1OCCN` [Example 133, 4-(2-aminoethoxy)-3-methoxy-N-[3-(2,4,6-trimethylphenyl)-phenyl]phenylacetamide], the inhibition in vivo at 10 mg/kg was 94% and the ED50 was 1.28 mg/kg.

`COc1cc(CC(=O)Nc2cccc(-c3cccc(C(C)C)c3)c2)ccc1OCCN` [Example 136, 4-(2-aminoethoxy)-N-[3-(3-isopropylphenyl)phenyl]-3-methoxyphenylacetamide] was tested, and the inhibition in vivo at 10 mg/kg was 99% and the ED50 was 3.11 mg/kg.

With `COc1cc(CC(=O)Nc2cccc(-c3ccc(C(F)(F)F)cc3)c2)ccc1OCCN` [Example 140, 4-(2-aminoethoxy)-3-methoxy-N-[3-(4-trifluoromethylphenyl)-phenyl]phenylacetamide] the inhibition in vivo at 10 mg/kg was 91% and the ED50 was 2.18 mg/kg.

`COc1cc(CC(=O)Nc2cccc(-c3ccccc3C(F)(F)F)c2)ccc1OCCN` [Example 142, 4-(2-aminoethoxy)-3-methoxy-N-[3-(2-trifluoromethylphenyl)-phenyl]phenylacetamide] was tested, and the inhibition in vivo at 10 mg/kg was 98.9% and the ED50 was 1.19 mg/kg.

Molecule `COc1cc(CC(=O)Nc2cccc(-c3ccccc3-c3ccccc3)c2)ccc1OCCN` [Example 143, 4-(2-aminoethoxy)-3-methoxy-N-[3-(2-phenylphenyl)phenyl]-phenylacetamide] has an inhibition in vivo at 10 mg/kg of 73.2% and an ED50 of 3.72 mg/kg.

In the case of `COc1cc(CC(=O)Nc2cccc(-c3cccc(-c4ccccc4)c3)c2)ccc1OCCN` [Example 145, 4-(2-aminoethoxy)-3-methoxy-N-[3-(3-phenylphenyl)phenyl]-phenylacetamide], the inhibition in vivo at 10 mg/kg is reported as 85.9%.

In the case of `COC(=O)c1cccc(-c2cccc(NC(=O)Cc3ccc(OCCN)c(OC)c3)c2)c1` [Example 146, 4-(2-aminoethoxy)-N-[3-(3-methoxycarbonylphenyl)phenyl]-3-methoxyphenylacetamide], the inhibition in vivo at 10 mg/kg is reported as 76.9% and the ED50 is reported as 2.68 mg/kg.

`COc1cc(CC(=O)Nc2cccc(-c3cccc(OC(F)(F)F)c3)c2)ccc1OCCN` [Example 150, 4-(2-aminoethoxy)-3-methoxy-N-[3-(3-trifluoromethoxyphenyl)-phenyl]phenylacetamide] gave an inhibition in vivo at 10 mg/kg of 100% and an ED50 of 1.32 mg/kg.

For `COc1cc(CC(=O)Nc2cccc(-c3ccccc3SC)c2)ccc1OCCN` [Example 158, 4-(2-aminoethoxy)-3-methoxy-N-[3-(2-methylthiophenyl)-phenyl]phenylacetamide], the inhibition in vivo at 10 mg/kg was 95.1% and the ED50 was 2.12 mg/kg.

`COc1cc(CC(=O)Nc2cccc(-c3ccsc3)c2)ccc1OCCN` [Example 161, 4-(2-aminoethoxy)-3-methoxy-N-[3-(thiophen-3-yl)phenyl]-phenylacetamide] showed an inhibition in vivo at 10 mg/kg of 79.4% and an ED50 of 2.79 mg/kg.

`COc1cc(CC(=O)Nc2cccc(-c3cccc4ccccc34)c2)ccc1OCCN` [Example 163, 4-(2-aminoethoxy)-3-methoxy-N-[3-(naphthalen-1-yl)phenyl]-phenylacetamide] showed an inhibition in vivo at 10 mg/kg of 87.9% and an ED50 of 1.61 mg/kg.

`COc1cc(CC(=O)Nc2cccc(-c3cc4ccccc4o3)c2)ccc1OCCN` [Example 166, 4-(2-aminoethoxy)-N-[3-(benzofuran-2-yl)phenyl]-3-methoxyphenylacetamide] gave an inhibition in vivo at 10 mg/kg of 96% and an ED50 of 2.4 mg/kg.

Work on `COc1cc(CC(=O)Nc2cccc(-c3cccc(C(C)(C)C)c3)c2)ccc1OCCN` [Example 169, 4-(2-aminoethoxy)-N-[3-(3-tert-butylphenyl)phenyl]-3-methoxyphenylacetamide] yielded an inhibition in vivo at 10 mg/kg of 100% and an ED50 of 1.29 mg/kg.

For `COc1cc(CC(=O)Nc2cc(-c3ccccc3)ccc2F)ccc1OCCN` [Example 170, 4-(2-aminoethoxy)-N-[(2-fluoro-5-phenyl)phenyl]-3-methoxyphenylacetamide], the “ED50 (mg/kg po)” value was 1.06 mg/kg and the “Inhibitory percentage (%)” value was 87.9%.

In the case of `COc1cc(CC(=O)Nc2cc(-c3ccccc3)cc(F)c2OC)ccc1OCCN` [Example 171, 4-(2-aminoethoxy)-N-[(2-methoxy-3-fluoro-5-phenyl)phenyl]-3-methoxyphenylacetamide], the “ED50 (mg/kg po)” value (listed as Ex. 171) is reported as 0.96 mg/kg and the “Inhibitory percentage (%)” value is reported as 94.0%.

In the case of `COc1cc(CC(=O)Nc2cc(-c3ccccc3)ccc2C)ccc1OCCN` [Example 172, 4-(2-aminoethoxy)-N-[(2-methyl-5-phenyl)phenyl]-3-methoxyphenylacetamide], the “ED50 (mg/kg po)” value is reported as 4.42 mg/kg and the “Inhibitory percentage (%)” value is reported as 75.9%.

`COc1cc(CC(=O)Nc2ccc(C)c(-c3ccccc3)c2)ccc1OCCN` [Example 173, 4-(2-aminoethoxy)-3-methoxy-N-[(3-phenyl-4-methyl)phenyl]-phenylacetamide] was tested, and the “ED50 (mg/kg po)” value (listed as Ex. 173) was 0.87 mg/kg and the “Inhibitory percentage (%)” value was 100%.

In the case of `COc1ccc(-c2ccccc2)cc1NC(=O)Cc1ccc(OCCN)c(OC)c1` [Example 177, 4-(2-aminoethoxy)-3-methoxy-N-[(2-methoxy-5-phenyl)phenyl]-phenylacetamide], the “ED50 (mg/kg po)” value is reported as 3.41 mg/kg and the “Inhibitory percentage (%)” value is reported as 78.9%.

`COc1cc(CC(=O)Nc2cc(-c3ccccc3)cc(C(F)(F)F)c2)ccc1OCCN` [Example 178, 4-(2-aminoethoxy)-3-methoxy-N-[(3-trifluoromethyl-5-phenyl)-phenyl]phenylacetamide] was tested, and the “ED50 (mg/kg po)” value was 1.65 mg/kg and the “Inhibitory percentage (%)” value was 100%.

For `COc1cc(CC(=O)Nc2ccc(OC(F)(F)F)c(-c3ccccc3)c2)ccc1OCCN` [Example 179, 4-(2-aminoethoxy)-3-methoxy-N-[(3-phenyl-4-trifluoromethoxy)-phenyl]phenylacetamide], the “ED50 (mg/kg po)” value (listed as Ex. 179) was 0.95 mg/kg and the “Inhibitory percentage (%)” value was 100%.

For `COc1cc(CC(=O)Nc2cc(-c3ccccc3)c(C)c(-c3ccccc3)c2)ccc1OCCN` [Example 181, 4-(2-aminoethoxy)-3-methoxy-N-[(4-methyl-3,5-diphenyl)-phenyl]phenylacetamide], the “ED50 (mg/kg po)” value was 1.11 mg/kg and the “Inhibitory percentage (%)” value was 80.9%.

From patent US7084176B2, “N-arylphenylacetamide derivatives and medicinal compositions containing the same” (Dainippon Pharmaceutical Co., Ltd., priority 2001, dated 2006)
